Consider `CCOC(=O)C1=C2NCCN2C(C)=C(C(=O)OC)C1c1ccccc1[N+](=O)[O-]` (stereo not drawn), for which the melting point came to 185 °C.

On to `CCCC(=O)Nc1n[nH]c2cc(-c3ccc(O)cc3)c(-c3ccccc3)cc12`, for which the melting point is 220 °C.

Turning to `CNc1nc(N=[N+]=[N-])ncc1C#N`, the melting point was in the range of 225 to 230 °C.

Compound `O=c1[nH]c2cc(OCCN3CCC(Cc4ccccc4)CC3)ccc2o1` returned a melting point of 176 to 177 °C.

In the case of `O=C1Nc2ccccc2C12COc1cc3nccnc3cc12` (stereo not drawn), the melting point was 206 to 207 °C.

Take `c1ccc(C(Cn2cncn2)c2ccccc2)cc1`: the melting point lay within 107 to 108 °C.

In turn, `CC(C)(C)OC(=O)NN(C(=O)OC(C)(C)C)c1ccc(OCC(F)(F)F)cc1` showed a melting point of 140 to 141 °C.

With `CC(C)C(=O)N(O)Cc1ccc2c(c1)Cc1ccccc1-2`, the melting point fell in the range of 163 to 166 °C.

On to `CCc1cc2cc(CC(=O)O)c(Cl)c(Cl)c2s1`, for which the melting point lay within 179 to 181 °C.

`O=C1c2c(-c3ccccc3)noc2CCC1CCCN1CCCCC1` (stereo not drawn) yielded a melting point of 91.5 to 93.5 °C.

Regarding `CCC1C(=O)N(c2ccccc2)C(=S)N1c1ccc(Oc2ccccc2)cc1` (stereo not drawn), the melting point was 158 to 159 °C.

As to `COc1cc(OC)c2c(c1)C(C)(C)C1(C=Cc3cc([N+](=O)[O-])cc(OC)c3S1)N2C` (stereo not drawn), the melting point amounted to 131 °C.

Regarding `O=C(NC[C@H]1CN(c2cc(F)c(N3CCC(n4cnnn4)CC3)c(F)c2)C(=O)O1)C1CC1`, the melting point was in the range of 162 to 164 °C.

`CCCC(=O)Nc1cc([N+](=O)[O-])c(Sc2cccc3cnccc23)cc1N` had a melting point of 191 to 192 °C.

With `Cc1cccc2c1cc(C(=O)NCC1CCN(CC3(O)CCOCC3)CC1)c(=O)n2C(C)C`, the melting point was determined as 222 °C.

With `COc1cc2ccc(-c3ccc(C(=O)O)cc3)cc2cc1C12CC3CC(CC(C3)C1)C2`, the melting point amounted to 360 °C.

`CC(O)CCSC(=S)Nc1ccc(Cl)cn1` (stereo not drawn) showed a melting point of 120 °C.

Turning to `NS(=O)(=O)c1ccccc1C1CCOC1=O` (stereo not drawn), the melting point is 141 to 146 °C.

In the case of `CC(=O)N1CCC(C(=O)c2ccc(Br)cc2F)CC1`, the melting point was in the range of 111 to 113 °C.

`Cc1nnc(-c2cc3c(-c4ccccc4Cl)coc3cn2)o1` gave a melting point of 162 to 163 °C.

With `COC(=O)c1ccc2oc(-c3ccc(OC)cc3)cc2c1`, the melting point is 157 to 159 °C.

`O=C(O)CCC(=O)Nc1ccc2[nH]c(=O)c3ccccc3c2c1` gave a melting point of 224 to 228 °C.

For `COC(=O)c1ccc(-c2nnc(-c3ccc(C(C)C)cc3)s2)cc1`, the melting point was 147 to 151 °C.

As for `COCCOc1ccc(CCCOC(=O)NS(=O)(=O)NC2CCC(C)CC2)c(Oc2ncc(C(F)(F)F)cc2Cl)c1` (stereo not drawn), the melting point stood at 122 °C.

For the compound `CC(=O)n1ccc2cc(C(=O)NC(C)(C)C)ccc21`, the melting point was found to be 187 °C.

As for `CCn1ncc2c3noc(-c4cccc(C)c4)c3cnc21`, the melting point was in the range of 178 to 179 °C.

`Clc1cnc2c(COCn3cncn3)c(Cl)ccc2c1` gave a melting point of 156 to 158 °C.

Consider `C/C(=C\Cn1oc(=O)[nH]c1=O)c1cccc(OCc2nc(-c3ccccc3)oc2C)c1`, for which the melting point fell in the range of 118 to 119 °C.

Regarding `Cc1cc(C(O)(c2ccc(Cl)cc2)C(F)(F)F)ccc1N` (stereo not drawn), the melting point lay in the range of 157 to 160 °C.

Compound `CNc1c(CC(C)O)cc([N+](=O)[O-])cc1[N+](=O)[O-]` (stereo not drawn) displayed a melting point of 132 °C.

Compound `CCCCOC1(c2nc(-c3ccc(F)cc3)c(-c3ccncc3)[nH]2)CCN(C)CC1` showed a melting point of 177 °C.

With `Cc1ccc(C(=C(C=CC(O)CC(=O)CC(=O)OC(C)(C)C)c2nnnn2C)c2ccc(C)cc2F)c(F)c1` (stereo not drawn), the melting point lay in the range of 55 to 63 °C.

`C[C@]1(CN2CCN(c3ccc(OC(F)(F)F)cc3)CC2)Cn2cc([N+](=O)[O-])nc2O1` returned a melting point of 129 to 130 °C.

`COc1c(Cl)ccc(-c2cc(N)c(Cl)c(C(=O)N(C)OC)n2)c1F` registered a melting point of 159 to 162 °C.

Turning to `CCn1ncc2c(O)c3c(nc21)C(=O)c1ccccc1CC3`, the melting point was in the range of 190 to 192 °C.

`CCOC(=O)c1c(OCN2C(=O)c3c(C(C)C)cc(OC)cc3S2(=O)=O)nc2ncccn2c1=O` displayed a melting point of 189 to 191 °C.

`O=C(Cc1nnn[nH]1)OCc1ccccc1` returned a melting point of 72 to 73 °C.

The compound `CCn1c(C(F)(F)F)nn(C2=CCC(F)(C(N)=S)C(N)=C2)c1=O` (stereo not drawn) gave a melting point of 161 °C.

Compound `N#Cc1cc(-c2nc3cncnc3s2)ccc1Oc1cccc(F)c1` registered a melting point of 189 to 190 °C.

`Oc1ccc(-c2noc3c(Br)cc(O)cc23)cc1` displayed a melting point of 267 to 270 °C.

As for `CC(=O)Nc1cc(C2=NOC(c3cc(Cl)cc(Cl)c3)(C(F)(F)F)C2)ccc1-n1cncn1` (stereo not drawn), the melting point was 230 to 233 °C.

`CC(O)Cc1cc2c(cc1C(=NNc1ncccn1)c1ccc([N+](=O)[O-])cc1)OCO2` (stereo not drawn) gave a melting point of 125 to 127 °C.

`COc1ccc(-n2nc(OCC(F)(F)F)nc2-c2ccc(OC)nc2)cc1`: the melting point fell in the range of 82 to 83 °C.

The compound `CC(C)c1cccc(C(C)C)c1NC(=O)CC(=O)C1(c2ccccc2)CCCC1` came in with a melting point of 145 to 147 °C.

Consider `Cn1ccnc1COc1ccccc1N`, for which the melting point was in the range of 114 to 116 °C.

For `CN(C)C1(c2ccc(F)cc2)CCC(N2CCC(c3c[nH]c4ccccc34)C2)CC1` (stereo not drawn), the melting point was 248 to 250 °C.

`CC(C)C(C(=O)O)c1ccc(O)c([N+](=O)[O-])c1` (stereo not drawn) yielded a melting point of 103 to 105 °C.

Compound `CC(=O)NC1(c2ccc(CN3CCN(c4ccccn4)CC3)cc2)CC1` displayed a melting point of 145 to 147 °C.

`CS(=O)(=O)C(=C1CN(C(c2ccccc2)c2ccccc2)C1)c1cccc(C#N)c1`: the melting point was 152 °C.

Turning to `O=C1OC(=O)c2cc3occc3c3cccc1c23`, the melting point lay in the range of 160 to 165 °C.

Consider `CC(O)c1cc2c(Cl)cc(F)c(-n3c(=O)cc(C(F)(F)F)n(C)c3=O)c2o1` (stereo not drawn), for which the melting point was 154 to 157 °C.

`COC(=O)CCc1ccc(Oc2ccc(-c3ccc(C(=N)N)cc3)nn2)cc1` displayed a melting point of 178 to 181 °C.

`CN(O)C(=O)c1ccc(CCCCc2ccncc2)cc1` registered a melting point of 148 to 150 °C.

`NCCCP(=O)(O)CC(O)CN1C(=O)c2ccccc2C1=O` (stereo not drawn) displayed a melting point of 268 to 271 °C.

For the compound `CCOc1cc(C(=CC#N)c2ccc(OC)c([N+](=O)[O-])c2)ccc1OC`, the melting point lay in the range of 141 to 143 °C.

`Cn1nc(-c2ccc(F)cc2)c(-c2ccncc2)c1CCCc1ccc([N+](=O)[O-])cc1` gave a melting point of 129 to 132 °C.

`COc1ccc2c(c1)C[C@@H](C(N)=O)CC2`: the melting point fell in the range of 159 to 161 °C.

With `C[C@@H](Cn1ncc2ccc3c(c21)O[C@@H](CO)CO3)NC(=O)OCc1ccccc1`, the melting point is 116 to 117 °C.

`CN(C)c1nc(NS(=O)(=O)c2ccc(N)cc2)cc(N2CCC2)n1` displayed a melting point of 239 to 240 °C.

`Cc1cc(C=O)ccc1NC(=O)OC(C)(C)C` gave a melting point of 109 to 111 °C.

As to `CC(=O)Nc1nc(C=O)c(Cc2ccccc2)s1`, the melting point is 191 to 192 °C.

`Cc1noc(NS(=O)(=O)c2ccccc2-c2ccc(-c3ccon3)cc2)c1C`: the melting point was in the range of 85 to 90 °C.

Turning to `CCn1ncc2c(-c3cncc(C)c3)c(/C=C/C(=O)O)c(COC)nc21`, the melting point is 195 to 196 °C.

The compound `CCCCSc1cc2nc3ccccc3sc-2cc1=O` returned a melting point of 133 °C.

On to `NP(N)(=S)N1CCCC1`, for which the melting point was 95 to 99 °C.

Consider `CC(C)(C)OC(=O)N[C@H](CC(=O)OCc1ccccc1)C(=O)N[C@H](CO)Cc1ccccc1`, for which the melting point was in the range of 94 to 95 °C.

`CCOC(=O)c1cc(-c2ccc(OC)cc2)nn(CC2CCCC2)c1=O` showed a melting point of 63.6 to 64.4 °C.

`CC[C@H](C1CC1)n1cc(Cl)nc(N2CCc3cc(Br)cc(Cl)c32)c1=O` returned a melting point of 126 to 127 °C.

As to `O=C1OC(=O)c2c1ccc1ncccc21`, the melting point was 247 to 250 °C.

As for `CS(=O)(=O)c1ccc(Oc2ccc3[nH]c(C4=NCC(CC(=O)NCC(F)(F)F)S4)cc3c2)cn1` (stereo not drawn), the melting point was in the range of 234 to 235 °C.

For `c1ccc2oc(SSCCSSc3nc4ccccc4o3)nc2c1`, the melting point was 124 to 125 °C.

Compound `C=C(CN(C)C)C(O)c1ncc2c(c1O)COC2c1ccc(Cl)cc1` (stereo not drawn) showed a melting point of 195 to 200 °C.

In the case of `COc1cc(OC)nc(OC(C(=O)O)C(OC)(c2ccccc2)c2ccccc2)n1` (stereo not drawn), the melting point fell in the range of 16 to 17 °C.

`CCOC(COC1CC2C3CCC4=CC(=O)CCC4(C)C3(F)C(O)CC2(C)C1(O)C(=O)CO)OCC` (stereo not drawn) had a melting point of 208 to 210 °C.

In turn, `COc1ccc(S(=O)(=O)N(Cc2ccccc2)c2c(C(=O)O)cnc3c2c(C)nn3C)cc1` displayed a melting point of 165 to 167 °C.

`C=CCOC(=O)CCC(C)(c1ccc(O)cc1)c1ccc(O)cc1` came in with a melting point of 83 to 85 °C.

Compound `CCCCCCCCCCOc1ccc(-c2ccc(OCc3ccccc3)c(F)c2)cc1F` displayed a melting point of 95.8 to 98.6 °C.

With `Nc1cn(-c2cncnc2)nc1Cl`, the melting point fell in the range of 146 to 148 °C.

The compound `CC(C)N(CCCC1CCN(CCNC(=O)N2c3ccccc3C(=O)Nc3cccnc32)CC1)C(C)C` showed a melting point of 184 °C.

In turn, `CCOC(=O)/C=C/c1nc(COc2ccc(C=O)cc2OC)c(C)o1` showed a melting point of 117 to 118 °C.

As to `CC(C)n1c(=O)nc(-c2ccc3c(c2)CCC3)c2cc3c(cc21)OCO3`, the melting point was in the range of 73 to 75 °C.

Consider `CC(C)(C)Oc1c(-c2ccc(S(C)(=O)=O)cc2)cnn(-c2cccc(Cl)c2)c1=O`, for which the melting point fell in the range of 232 to 235 °C.

In turn, `CCCOCCOc1ccc(-c2ccc3c(c2)C=C(C(=O)OC)CCN3c2ccccc2)cc1` showed a melting point of 117 to 119 °C.

As to `CO[C@H]1CC[C@H]([C@H]2CC[C@H](CCC=O)CC2)CC1`, the melting point was determined as 36 °C.

Compound `O=c1c(Cl)c(Cl)cnn1CC=Cc1ccccc1` gave a melting point of 98 to 99 °C.

`CC[C@H]1[C@@H](O)C(F)(F)C(=O)N1c1ccc(C#N)c(OC)c1` yielded a melting point of 161 to 164 °C.

Turning to `CCOC(=O)c1cccc(-c2nc(-c3ccc(OCC)cc3)cs2)c1`, the melting point is 108 to 110 °C.

`C=CCOc1ccc(-c2ccc(O)cc2)cc1` returned a melting point of 168 to 170 °C.

One may read the melting point as the temperature of the solid-liquid transition.
